Measured values published in US20240391955A1, “PEPTIDE HAVING ANTI-AGING ACTIVITY, AND USE THEREOF” (CAREGEN CO., LTD., priority 2021, published 2024).

Experiments:
SIRT1 = SIRT1 mRNA level by RT-PCR in HaCaT keratinocytes; type: cell-based, human; settings: HaCaT cells, peptide 10, 50, 100 μM, 24 hours, FIG. 3
Protocol: (§1) First, HaCaT cells were seeded in a 6-well plate at a cell density of 3×10^5 cell/well, and then the cells were cultured in DMEM medium containing 10% fetal bovine serum (FBS) for 24 hours. The cultured cells were washed once with serum free DMEM medium, and then the peptide of the present invention was mixed in 1 mL of the serum free DMEM medium at each of concentrations of 10, 50, and 100 μM, and dispensed into the cells. A positive control (PC) was treated with 100 nM of EGF instead of the above peptide. The cells were cultured in a CO2 incubator at 37° C. for 24 hours.
(§2) The cultured cells were washed twice with PBS, and then RNA was extracted from the cells using easy blue (iNtRON, Cat. No.: 17061, Korea). The extracted RNA was subjected to RT reaction using a kit (enzynomics, Cat. No.: RT200, Korea). Thereafter, RT-PCR was performed using a PCR kit (enzynomics, Cat. No.: R581T, Korea). The sequences of the primers of SIRT1 and AQP3 used in RT-PCR and the sequence of the primer of GAPDH used to compare the total RNA amount of each treatment group are shown in [Table 2].

hyaluronic acid = test: Hyaluronic acid secretion by HA ELISA in HaCaT keratinocytes; type: cell-based, human; settings: peptide 10, 50, 100 μM, 72 hours, FIG. 2
Protocol: (§3) First, NIH3T3 cells and HaCaT cells (human keratinocyte cell line) were seeded in a 24-well plate at a cell density of 1×10^4 cell/well, and then the cells were cultured in DMEM medium containing 10% fetal bovine serum (FBS) for 24 hours. The cultured cells were washed once with serum free DMEM medium, and the peptide of the present invention was mixed in 2 mL of the serum free DMEM medium at each of concentrations of 10 μM, 50 μM, 100 μM, and 5 ng/ml, and dispensed into three wells by 500 μL per condition. NIH3T3 cells were treated with 5 ng/ml of TGF-β1 instead of the above peptide as a positive control (PC). HaCaT cells were treated with 10 nM of IGF-1 instead of the above peptide as a positive control (PC). The cells were cultured in a CO2 incubator at 37° C. for 72 hours.
(§4) The medium of the cultured NIH3T3 and HaCaT cells was centrifuged to settle a suspended matter, a supernatant was transferred to an e-tube, and then each of ELISA (abcam, Cat No.: ab210579, UK) and hyaluronic acid (HA) ELISA (ECHELON biosciences, Cat No.: K-1200, USA) was performed using the same.

elastin = test: Elastin mRNA level after UVA irradiation, RT-PCR; type: cell-based, mouse; settings: NIH3T3 cells, peptide 10, 50, 100 μM, 6 J/cm^2 UVA, FIG. 5
Protocol: (§5) First, NIH3T3 cells were seeded in a 6-well plate at a cell density of 5×10^5 cell/well, and then the cells were cultured in DMEM medium containing 10% fetal bovine serum (FBS) for 24 hours. The cultured cells were washed once with serum free DMEM medium, and then the peptide of the present invention was mixed in 1 mL of the serum free DMEM medium at each of concentrations of 10, 50, and 100 μM, and dispensed into the cells. A positive control (PC) was treated with 50 μM of Quercetin instead of the above peptide. The cells were cultured in a CO2 incubator at 37° C. for 6 hours.
(§6) The medium of the cultured cells was transferred to a tube (e-tube), 1 ml of PBS was added, and irradiation was performed with 6 J/cm^2 of UVA using a UV irradiator (VILBER LOURMAT, Cat No.: 3102-BSU, France). After removing PBS, 900 μL of the medium transferred to the tube was dispensed, and culture was performed in a CO2 incubator at 37° C. for 6 hours. The cultured cells were washed twice with PBS, and then RNA was extracted from the cells using easy blue (iNtRON, Cat. No.: 17061, Korea). The amount of RNA extracted was quantified, 1,000 ng of RNA was added per tube, and RT reaction was performed using a kit (enzynomics, Cat. No.: RT200, Korea) Thereafter, RT-PCR was performed using a PCR kit (enzynomics, Cat. No.: R581T, Korea). […]

MMP-1 [1] = test: MMP-1 protein after heat treatment, western blot; type: cell-based, mouse; settings: NIH3T3 cells, peptide 10, 50, 100 μM, 44° C. for 40 minutes, FIG. 7
Protocol: (§7) First, NIH3T3 cells were seeded in a 6-well plate at a cell density of 5×10^5 cell/well, and then the cells were cultured in DMEM medium containing 10% fetal bovine serum (FBS) for 24 hours. The cultured cells were washed once with serum free DMEM medium, and the peptide of the present invention was mixed in 1 mL of the serum free DMEM medium at each of concentrations of 10, 50, and 100 μM, and dispensed into the cells. A positive control (PC) was treated with 2.5 mM of N-acetylcysteine (NaC) instead of the above peptide.
The cells were cultured in a CO2 incubator at 37° C. for 24 hours. A lid and a lower plate of the 6-well plate were sealed with a paraffin film for heat treatment, the lower plate was immersed in a water bath at 44° C., and culture was performed for 40 minutes. After removing the medium, 1 mL of serum free DMEM medium was added, and culture was performed in a CO2 incubator at 37° C. for 8 hours. Thereafter, the cells were washed twice with PBS, and then a cell lysis buffer was added to obtain a lysate.
A sample was prepared by treating the cells with 5× sample buffer, and then SDS-PAGE was performed using 10% SDS-PAGE gel. The proteins isolated through SDS-PAGE were transferred to a PVDF membrane, and blocking was performed at room temperature for 1 hour using 5% skin milk. […]

MMP-2 = MMP-2 activity after UVA irradiation, gelatin zymography; type: cell-based, mouse; settings: NIH3T3 cells, culture medium, peptide 10, 50, 100 μM, 6 J/cm^2 UVA, FIG. 6
AQP3 = AQP3 mRNA level by RT-PCR in HaCaT keratinocytes; type: cell-based, human; settings: HaCaT cells, peptide 10, 50, 100 μM, 24 hours, FIG. 3
Protocol: as §1, §2

fibronectin = test: Fibronectin mRNA level after UVA irradiation, RT-PCR; type: cell-based, mouse; settings: NIH3T3 cells, peptide 10, 50, 100 μM, 6 J/cm^2 UVA, FIG. 5
Protocol: as §5, §6

Colla1 = Colla1 mRNA level after UVA irradiation, RT-PCR; type: cell-based, mouse; settings: NIH3T3 cells, peptide 10, 50, 100 μM, 6 J/cm^2 UVA, FIG. 5
Protocol: as §5, §6

fibronectin gene = test: Fibronectin gene expression by RT-PCR in fibroblasts; type: cell-based, mouse; settings: NIH3T3 cells, peptide 10, 50, 100 μM, 24 hours, FIG. 1
Protocol: (§8) First, NIH3T3 cells (mouse fibroblast cell line) were seeded in a 6-well plate at a cell density of 3×10^5 cell/well, and then the cells were cultured in DMEM medium containing 10% fetal bovine serum (FBS) for 24 hours. The cultured cells were washed once with serum free DMEM medium, and the peptide of the present invention was mixed in 1 mL of the serum free DMEM medium at each of concentrations of 10, 50, and 100 μM, and dispensed into the cells. A positive control (PC) was treated with 5 ng/ml of TGF-β1 instead of the above peptide. The cells were cultured in a CO2 incubator at 37° C. for 24 hours.
(§9) The cultured cells were washed twice with PBS, and RNA was extracted from the cells using easy blue (iNtRON, Cat. No.: 17061, Korea). The amount of RNA extracted was quantified, 1,000 ng of RNA was added per tube, and RT reaction was performed using a kit (enzynomics, Cat. No.: […], Korea). RT-PCR was performed using a PCR kit (enzynomics, Cat. No.: […], Korea). The sequences of the primers of fibronectin and elastin used in RT-PCR and the sequence of the primer of GAPDH used to compare the total RNA amount of each treatment group are shown in [Table 2].

MMP-1 [2] = test: MMP-1 expression after UVA irradiation, western blot; type: cell-based, mouse; settings: NIH3T3 cells, peptide 10, 50, 100 μM, 6 J/cm^2 UVA, FIG. 6
Protocol: as §7
The cells were cultured in a CO2 incubator at 37° C. for 1 hour. The medium of the cultured cells was transferred to a tube (e-tube), 1 ml of PBS was added, and irradiation was performed with 6 J/cm^2 of UVA using a UV irradiator (VILBER LOURMAT, Cat No.: 3102-BSU, France). After removing PBS, 900 μL of the medium transferred to the tube was added, and culture was performed in a CO2 incubator at 37° C. for 6 hours. The medium of the cultured cells was transferred to a tube, the cells were washed twice with PBS, and then a cell lysis buffer was added to lyse the cells. A sample was prepared by treating the cells with 5× sample buffer, and then SDS-PAGE was performed using 10% SDS-PAGE gel. The proteins isolated through SDS-PAGE were transferred to a PVDF membrane. Blocking was performed at room temperature for 1 hour using 5% skim milk. […]

elastin gene = test: Elastin gene expression by RT-PCR in fibroblasts; type: cell-based, mouse; settings: NIH3T3 cells, peptide 10, 50, 100 μM, 24 hours, FIG. 1
Protocol: as §8, §9

[3] = system: intracellular reactive oxygen species in NIH3T3 cells; test: Intracellular ROS level after UVA irradiation (DCFH-DA, FACS); type: cell-based, mouse; settings: peptide 10, 50, 100 μM, 8 J/cm^2 UVA, 24 hours after irradiation, FIG. 4
Protocol: First, NIH3T3 cells were seeded in a 6-well plate at a cell density of 5×10^5 cell/well, and then the cells were cultured in DMEM medium containing 10% fetal bovine serum (FBS) for 24 hours. The cultured cells were washed once with serum free DMEM medium, and then the peptide of the present invention was mixed in 1 mL of the serum free DMEM medium at each of concentrations of 10, 50, and 100 μM, and dispensed into the cells. A positive control (PC) was treated with 7.5 mM of N-acetylcysteine (NaC) instead of the above peptide.
The cells were cultured in a CO2 incubator at 37° C. for 1 hour. The medium of the cultured cells was transferred to a tube, 1 ml of PBS was added, and irradiation was performed with 8 J/cm^2 of UVA using a UV irradiator (VILBER LOURMAT, Cat No.: 3102-BSU, France). After removing PBS, 900 μL of the medium transferred to the tube was dispensed, and culture was performed in a CO2 incubator at 37° C. for 24 hours. After treatment with 10 μM of dichloro-dihydro-fluorescein diacetate (DCFH-DA), wrapping with a foil was performed, and culture was performed in a CO2 incubator at 37° C. for 30 minutes. The cells were washed twice with PBS, and 500 μL of 1XTE was dispensed to isolate the cells. After centrifugation, the cells were washed with PBS, and a fluorescence value was measured through FACS.

collagen = test: Collagen protein secretion by ELISA in NIH3T3 fibroblasts; type: cell-based, mouse; settings: peptide 10, 50, 100 μM, 72 hours, FIG. 2
Protocol: as §3, §4

For KRRRKRK [SEQ ID NO: 1], the “mRNA level of SIRT1” value (SIRT1) was “increased”, the “protein secretion of hyaluronic acid” value (hyaluronic acid) was “gradually increased as the concentration of the peptide increased” and the “mRNA level of elastin decreased by UV irradiation” value (elastin) was “increased again”. For the same substance, the “amount of secretion of MMP-1 protein whose expression was increased by heat treatment” value (MMP-1 [1]) was “decreased”, the “activity of MMP-2 increased by UV irradiation” value (MMP-2) was “inhibited” and the “mRNA level of AQP3” value (AQP3) was “increased”. The “mRNA level of fibronectin decreased by UV irradiation” value (fibronectin) was “increased again”, the “mRNA level of Colla1 decreased by UV irradiation” value (Colla1) was “increased again” and the “expression of fibronectin gene” value (fibronectin gene) was “gradually increased as the concentration of the peptide increased”. For the same substance, the “expression of MMP-1 increased by UV irradiation” value (MMP-1 [2]) was “inhibited”, the “expression of elastin gene” value (elastin gene) was “gradually increased as the concentration of the peptide increased” and the “intracellular reactive oxygen species level increased by UV irradiation” value [3] was “decreased”. The “protein secretion of collagen” value (collagen) was “gradually increased as the concentration of the peptide increased”.
